Patent US8772297B2, “TGF-β signal transduction inhibitor” (Kyoto University, priority 2010, dated 2014)

How the values were obtained:
[1] = test system: ARPE-19 cells; assay: Evaluation of TGF-β-induced epithelial-mesenchymal transition (EMT) inhibitory activity; type: cell-based; details: human TGF-β2 10 ng/mL and human TNF 10 ng/mL, 2 days, Giemsa stain, FIG. 1
Experimental: Human retinal pigment epithelial cells (ARPE-19 cells) were seeded in a 96 well plate at a concentration of 1.2×10^4 cells/well, and cultured overnight (5% CO2, 37° C.) in DMEM/F12 medium containing 10% fetal bovine serum, penicillin (100 U/mL), streptomycin (100 μg/mL) and Hepes (10 mM). The next day, the medium was changed to a serum-free medium, and a test compound was added. After 1 hr, the cells were stimulated with human TGF-β2 (10 ng/mL) and human TNF (10 ng/mL). After culture for 2 days, the cells were stained with Giemsa, and the influence of the compound on the formation of cell aggregates was evaluated.

[2] = test system: liver Kupffer cells; assay: Influence on activation of liver Kupffer cells in primary culture system; type: cell-based; details: rat primary culture, 7 days
Experimental: Wistar rat (bred under SPF, male, 15-week-old) was subjected to laparotomy under pentobarbital anesthesia, a catheter was inserted into the portal vein, and perfusion was performed successively with a washing solution for hemorrhage, a 0.06% pronase solution (manufactured by Carbiochem), and a 0.03% collagenase (manufactured by Wako Pure Chemical Industries, Ltd.) solution. Then, the liver was isolated and incubated in a liver Kupffer cell separation buffer containing 0.057% pronase and 0.057% collagenase, and supplemented with 2 mg/mL DNaseI (1 mL, manufactured by Roche Diagnostics) in a warm bath at 36° C. for 30 min. During this period, the pH of the lysate was maintained at 7.2-7.4 with 1N NaOH. Then, the hepatic tissue digestive product was filtered through a mesh, a liver Kupffer cell separation buffer was added to the obtained filtrate to the total amount of 150 mL. The mixture was dispensed to three 50-mL polypropylene tubes, and centrifuged at 4° C., 2000 rpm for 8 min. […]
On the other hand, respective cells were washed with phosphate buffer (PBS: phosphate buffered saline) 7 days later, and fixed with 4% para-formaldehyde at room temperature for 10 min. […] Then, the cells were washed with PBST, and the α smooth muscle actin (αSMA) expression level was observed under a fluorescence microscope.

[3] = test system: mouse bile duct ligation induced hepatic fibrosis model; assay: Anti-fibrillization action in mouse bile duct ligation induced hepatic fibrosis model (BDL model); type: in vivo; details: ICR mice, tail vein once a day for 14 days, qPCR vs GAPDH, FIG. 4
Experimental: Hepatopathy caused by accumulation of bile in the liver and therewith associated liver fibrillization are induced by ligating the bile duct of mouse. The effect of the test compound on the hepatopathy and liver fibrillization associated therewith was evaluated. […]
mRNA was extracted from the hepatic tissue preserved in RNALater by using an RNA purification kit RNeasy Micro Kit (manufactured by QIAGEN), and the RNA concentration was determined using a spectrophotometer (Nano Drop). […] Using SYBR® Premix EX Taq™ (manufactured by TAKARA), a reaction mixture was prepared according to the package insert, qPCR reaction was performed using respective primers for αSMA and the internal standard GAPDH (manufactured by Invitrogen), and the mRNA expression level was quantified.

SMILES: CN(C)c1ccc(NS(=O)(=O)c2cccc(S(=O)(=O)NCC3CCN(C(=O)OC(C)(C)C)CC3)c2)cc1-c1ccco1 [Y244, 4-{[3-(4-dimethylamino-3-furan-2-yl-phenylsulfamoyl)benzenesulfonylamino]methyl}piperidine-1-carboxylic acid tert-butyl ester]
- EMT induced by TGF-β (formation of cell aggregates) [1]: remarkably suppressed
- expression of α smooth muscle actin associated with the activation of liver Kupffer cells ([2]; Cy3-labeled anti-αSMA antibody, fluorescence microscope, FIG. 3): remarkably suppressed
- cell morphology change caused by the activation of liver Kupffer cells ([2]; bright field, FIG. 2): suppressed
- mRNA expression level of α smooth muscle actin in the liver tissue [3]: significantly suppressed
